The target in series [1] is T1, Gonadotropin-releasing hormone receptor (Rattus norvegicus, UniProt P30969).
T1 sequence (P30969 whole entry): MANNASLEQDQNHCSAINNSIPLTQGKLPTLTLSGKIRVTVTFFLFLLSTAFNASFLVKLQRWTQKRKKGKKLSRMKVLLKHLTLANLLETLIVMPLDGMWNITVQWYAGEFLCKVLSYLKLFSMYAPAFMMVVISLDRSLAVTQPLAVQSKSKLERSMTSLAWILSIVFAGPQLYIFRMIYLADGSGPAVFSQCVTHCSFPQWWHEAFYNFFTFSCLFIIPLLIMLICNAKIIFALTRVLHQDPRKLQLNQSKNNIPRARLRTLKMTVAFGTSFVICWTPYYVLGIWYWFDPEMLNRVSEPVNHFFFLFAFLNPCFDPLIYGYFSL
In words: Antagonist activity at GNRH receptor in rat pituitary cells assessed as inhibition of D-Trp6-GnRH-induced LH accumulation after 3 hrs by RIA. The format is functional, cell-based, Pituitary gland cell.

Series [2] concerns the target T2, Gonadotropin-releasing hormone receptor (Homo sapiens, UniProt P30968).
T2 sequence (P30968 whole entry): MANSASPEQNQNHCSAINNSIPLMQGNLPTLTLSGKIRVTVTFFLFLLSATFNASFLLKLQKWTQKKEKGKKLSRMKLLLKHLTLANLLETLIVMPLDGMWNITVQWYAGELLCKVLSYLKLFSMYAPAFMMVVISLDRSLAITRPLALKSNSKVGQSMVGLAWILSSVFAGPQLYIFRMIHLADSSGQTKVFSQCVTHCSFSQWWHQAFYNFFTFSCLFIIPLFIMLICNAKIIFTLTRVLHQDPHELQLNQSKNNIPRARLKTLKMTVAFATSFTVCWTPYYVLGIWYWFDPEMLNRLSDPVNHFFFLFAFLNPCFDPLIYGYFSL
Description: Displacement of [125I]D-Trp6-GnRH from human recombinant GNRH receptor by scintillation counting.

Series [3] concerns the target T1, Gonadotropin-releasing hormone receptor. Description: Displacement of [125I]D-Trp6-GnRH from rat recombinant GNRH receptor by scintillation counting.
Series [4] has as its target T2, Gonadotropin-releasing hormone receptor. Description: Antagonist activity at human recombinant GNRH receptor assessed as inhibition of D-Trp6-GNRH-induced IP accumulation after 1 hr by rapid filtration assay. The format is functional.
Series [5] concerns the target T3, Gonadotropin-releasing hormone receptor (Homo sapiens) (UniProt P30968).
T3 sequence (whole entry): T2 sequence (P30968 whole entry)
Description: Displacement of [125I]D-Trp6-GnRH from human recombinant GNRH receptor at 500 nM by scintillation counting.

The nature of series [6]: Solubility at pH 7.4. Type of series: physicochemical. The settings on record: buffer.
Series [7] in a line: Half life in rat liver microsomes. The format is ADME, Microsome.
Series [8] can be described thus: Permeability by PAMPA method. Type of series: ADME. The note with it: read-out: permeability.
The target in a further series is Cytochrome P450 2C9 (Homo sapiens, UniProt P11712). Description: Inhibition of CYP2C9. Type of series: ADME.
Chain of Cytochrome P450 2C9 (P11712 whole entry): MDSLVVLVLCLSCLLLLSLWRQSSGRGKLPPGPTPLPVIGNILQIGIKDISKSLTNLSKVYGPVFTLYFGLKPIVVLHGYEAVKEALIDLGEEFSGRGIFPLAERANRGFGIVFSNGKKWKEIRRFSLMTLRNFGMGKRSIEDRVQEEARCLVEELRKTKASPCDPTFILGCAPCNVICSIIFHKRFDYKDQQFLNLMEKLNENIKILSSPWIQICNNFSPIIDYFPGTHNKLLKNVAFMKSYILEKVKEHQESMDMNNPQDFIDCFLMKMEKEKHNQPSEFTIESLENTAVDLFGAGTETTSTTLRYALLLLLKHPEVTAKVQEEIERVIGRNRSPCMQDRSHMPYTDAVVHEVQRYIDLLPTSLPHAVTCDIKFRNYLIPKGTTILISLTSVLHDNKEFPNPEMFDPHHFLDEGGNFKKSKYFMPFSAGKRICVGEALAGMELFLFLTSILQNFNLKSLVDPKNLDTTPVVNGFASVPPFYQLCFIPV
The target of a further series is Cytochrome P450 2D6 (Homo sapiens, UniProt P10635). In words: Inhibition of CYP2D6. The format is ADME.
Chain of Cytochrome P450 2D6 (P10635 whole entry): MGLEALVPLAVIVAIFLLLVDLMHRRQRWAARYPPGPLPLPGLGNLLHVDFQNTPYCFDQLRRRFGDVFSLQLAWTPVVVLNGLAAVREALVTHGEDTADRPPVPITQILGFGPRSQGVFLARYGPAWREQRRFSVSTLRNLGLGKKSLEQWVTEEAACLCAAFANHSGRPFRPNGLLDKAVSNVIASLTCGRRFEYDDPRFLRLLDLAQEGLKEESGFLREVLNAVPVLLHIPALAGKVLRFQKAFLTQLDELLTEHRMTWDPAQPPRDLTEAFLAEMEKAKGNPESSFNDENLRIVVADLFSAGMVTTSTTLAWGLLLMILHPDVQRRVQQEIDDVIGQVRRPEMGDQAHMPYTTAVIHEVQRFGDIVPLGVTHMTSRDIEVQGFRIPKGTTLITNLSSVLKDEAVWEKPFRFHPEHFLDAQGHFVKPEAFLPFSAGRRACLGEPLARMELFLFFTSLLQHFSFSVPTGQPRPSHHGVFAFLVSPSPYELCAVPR
A further series has as its target Cytochrome P450 3A4 (Homo sapiens, UniProt P08684). Description: Inhibition of CYP3A4. The format is ADME.
Series [9] in a line: Volume of distribution at steady state in orchidectomized Sprague-Dawley rat at 3 mg/kg, iv. Type of series: ADME, organism-based. Also noted: dose 3 mg/kg, route intravenous. The note with it: male, in vivo, read-out: Vdss.
A short description of series [10]: Oral bioavailability in orchidectomized Sprague-Dawley rat at 30 mg/kg. The settings on record: male, in vivo. The format is ADME, organism-based.
Series [11] is described as follows: Cmax in orchidectomized Sprague-Dawley rat at 3 mg/kg, iv. The settings on record: male, in vivo. The format is ADME, organism-based. Also noted: dose 3 mg/kg, route intravenous.
The nature of series [12]: Tmax in orchidectomized Sprague-Dawley rat at 30 mg/kg, po. The format is ADME, organism-based. The settings on record: male, in vivo. More on the design: dose 30 mg/kg, route oral.
Series [13] can be described thus: Cmax in orchidectomized Sprague-Dawley rat at 30 mg/kg, po. The format is ADME, organism-based. Also noted: dose 30 mg/kg, route oral. The settings on record: male, in vivo.
Series [14] in a line: Half life in orchidectomized Sprague-Dawley rat at 3 mg/kg, iv. Also noted: dose 3 mg/kg, route intravenous. The settings on record: male, in vivo. The format is ADME, organism-based.
Series [15] is described as follows: Half life in orchidectomized Sprague-Dawley rat at 30 mg/kg, po. The settings on record: male, in vivo. Type of series: ADME, organism-based. Also noted: dose 30 mg/kg, route oral.
Series [16] in a line: AUC (0 to infinity) in orchidectomized Sprague-Dawley rat at 3 mg/kg, iv. The format is ADME, organism-based. More on the design: time infinity, dose 3 mg/kg, route intravenous. The note with it: male, plasma.
Series [17] in a line: AUC (0 to infinity) in orchidectomized Sprague-Dawley rat at 30 mg/kg, po. The note with it: male, plasma. Type of series: ADME, organism-based. More on the design: time infinity, dose 30 mg/kg, route oral.
Series [18] can be described thus: Clearance in orchidectomized Sprague-Dawley rat at 3 mg/kg, iv. More on the design: dose 3 mg/kg, route intravenous. The settings on record: male, in vivo. The format is ADME, organism-based.
A short description of series [19]: Cmax in orchidectomized Sprague-Dawley rat at 1 mg/kg, iv. The format is ADME, organism-based. Also noted: dose 1 mg/kg, route intravenous. The settings on record: male, in vivo.
Series [20] is described as follows: Half life in orchidectomized Sprague-Dawley rat at 1 mg/kg, iv. Type of series: ADME, organism-based. More on the design: dose 1 mg/kg, route intravenous. The settings on record: male, in vivo.
Series [21] can be described thus: AUC (0 to infinity) in orchidectomized Sprague-Dawley rat at 1 mg/kg, iv. The settings on record: male, plasma. The format is ADME, organism-based. Also noted: time infinity, dose 1 mg/kg, route intravenous.

≈ marks a conversion by molar mass, not a printed value.

Chain of Cytochrome P450 3A4 (P08684 whole entry): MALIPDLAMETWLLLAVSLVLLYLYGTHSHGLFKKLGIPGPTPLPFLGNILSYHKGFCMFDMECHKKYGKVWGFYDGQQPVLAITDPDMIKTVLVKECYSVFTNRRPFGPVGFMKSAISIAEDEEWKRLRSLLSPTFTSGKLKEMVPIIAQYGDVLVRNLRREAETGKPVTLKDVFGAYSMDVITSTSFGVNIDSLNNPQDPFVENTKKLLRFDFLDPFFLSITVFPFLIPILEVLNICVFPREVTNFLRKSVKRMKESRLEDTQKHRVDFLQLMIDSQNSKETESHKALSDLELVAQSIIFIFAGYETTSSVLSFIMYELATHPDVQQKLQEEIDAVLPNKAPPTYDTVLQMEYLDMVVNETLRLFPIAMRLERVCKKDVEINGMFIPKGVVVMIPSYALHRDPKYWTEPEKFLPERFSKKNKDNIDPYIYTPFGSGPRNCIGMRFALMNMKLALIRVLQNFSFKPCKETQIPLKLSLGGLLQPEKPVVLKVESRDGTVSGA

With `CC(C)(C)c1ccc(-c2cn3cccc(N4CCN(Cc5ccc6nccnc6c5)CC4)c3n2)cc1`, the half-maximal inhibitory concentration (IC50) in series [1] came to 3400 nM; in [2], 47 nM; in series [3], 81 nM; in series [4] it was 90 nM.
For `CCc1nc(CN2CCN(c3cccc4sc(-c5ccc(C(C)(C)C)cc5)nc34)CC2)c(C)[nH]1`, in [5], the inhibition came to 70%.
For the molecule `CCn1cc(CN2CCN(c3cccn4cc(-c5ccc(C(C)(C)C)cc5)nc34)CC2)c(=O)[nH]c1=O`, the concentration in solution in series [6] (solubility) came to 6 µg/mL (≈ 12.3 µM). The concentration for half-maximal inhibition (IC50) was determined as 260 nM in series [1], 2.3 nM in [2], 5.7 nM in series [3] and 5 nM in [4]. The half-life in series [7] came to 6 min. Moreover, in series [8], the Papp worked out at 1.2 ×10⁻⁶ cm/s. The “inhibition (INH)” value against Cytochrome P450 2C9 is on record as 0%; on Cytochrome P450 2D6, 0%; against Cytochrome P450 3A4 it was 54%.
On to `CC(C)(C)c1ccc(-c2cn3cccc(N4CCN(Cc5c[nH]c(=O)[nH]c5=O)CC4)c3n2)cc1`, for which the IC50 in series [1] was 4400 nM; in series [2], 4.3 nM; in series [3] it was 95 nM; in series [4], 20 nM.
For the molecule `CC(C)(C)c1ccc(-c2cn3cccc(N4CCN(Cc5cnc6ccccc6n5)CC4)c3n2)cc1`, the half-maximal inhibitory concentration (IC50) stood at 1500 nM in series [1], 44 nM in series [2], 29 nM in series [3] and 39 nM in [4].
`CCc1nc(CN2CCN(c3cccc4nc(-c5ccc(C(C)(C)C)cc5)sc34)CC2)c(C)[nH]1`: the half-inhibitory concentration (IC50) in series [2] is above 10000 nM.
Molecule `CCc1nc(CN2CCN(c3cccn4cc(-c5ccc(C(C)(C)C)cc5)nc34)CC2)c(C)[nH]1` came in with a solubility in series [6] of 3 µg/mL (≈ 6.57 µM). Also, the 50% inhibitory concentration (IC50) in [1] turned out to be 920 nM; in series [2] it was 9.8 nM; in [3] it was 37 nM; in [4], 60 nM. In addition, the half-life in [7] stood at 21 min. Also, the Papp in series [8] stood at 0.2 ×10⁻⁶ cm/s. Moreover, the entries for the “inhibition (INH)” value against Cytochrome P450 2C9, against Cytochrome P450 2D6 and at Cytochrome P450 3A4 were 6%, 8% and 78%, respectively.
Regarding `CC(C)(C)c1ccc(-c2nc3c(N4CCN(Cc5ccc6nccnc6c5)CC4)cccc3[nH]2)cc1`, the concentration for half-maximal inhibition (IC50) is 360 nM in series [1] and 72 nM in series [3].
Take `CCc1nc(CN2CCN(c3cccc4oc(-c5ccc(C(C)(C)C)cc5)nc34)CC2)c(C)[nH]1`: the inhibition in series [5] was 61%.
In the case of `CCn1cnc(CN2CCN(c3cccn4cc(-c5ccc(C(C)(C)C)cc5)nc34)CC2)c1C`, the Vd in series [9] came out at 3.5 L/kg. The molecule also gave a bioavailability in series [10] of 28%. The concentration in solution in [6] (solubility) was 9 µg/mL (≈ 19.7 µM). The IC50 in series [1] turned out to be 420 nM; in series [2] it was 6.7 nM; in series [3] it was 12 nM; in [4], 41 nM. Also, the half-life was 11 min in series [7], 84 min in series [14] and 66 min in series [15]. Besides, the Papp in series [8] was determined as 1.1 ×10⁻⁶ cm/s. Besides, the “inhibition (INH)” value against Cytochrome P450 2C9 stood at 10%; on Cytochrome P450 2D6 it was 9%; against Cytochrome P450 3A4 it was 54%. The results for the Cmax in series [11] and in series [13] were 1760 ng/mL and 788 ng/mL, respectively. The Tmax in series [12] is 48 min. Also, the AUC(0-inf) in series [16] is 685 ng·h/mL; in [17], 1950 ng·h/mL. In series [18], this molecule showed a clearance of 75.1 mL/min/kg.
Take `CCc1nc(CN2CCN(c3cncc4[nH]c(-c5ccc(C(C)(C)C)cc5)nc34)CC2)c(C)[nH]1`: the results for the half-maximal inhibitory concentration (IC50) in series [2] and in series [3] were 58 nM and 290 nM, respectively.
As to `CCc1nc(CN2CCN(c3cccc4nc(-c5ccc(C(C)(C)C)cc5)cn34)CC2)c(C)[nH]1`, in [2], the IC50 is above 10000 nM.
Turning to `CCn1cnc(CN2CCN(c3cccc4[nH]c(-c5ccc(C(C)(C)C)cc5)nc34)CC2)c1C`, the solubility in series [6] stood at 3 µg/mL (≈ 6.57 µM). The concentration for half-maximal inhibition (IC50) was found to be 200 nM in [1], 5.8 nM in series [2] and 15 nM in [4]. In [8], the Papp stood at 2.7 ×10⁻⁶ cm/s. The Cmax in [19] was 458 ng/mL; in series [13] it was 533 ng/mL. Moreover, the half-life is 24 min in series [20] and 132 min in series [15]. Further, the values for the area under the curve AUC(0-inf) in [21] and in [17] were 124 ng·h/mL and 3440 ng·h/mL, respectively.
Regarding `CCc1nc(CN2CCN(c3cccc4nc(-c5ccc(C(C)(C)C)cc5)oc34)CC2)c(C)[nH]1`, in series [2], the IC50 was above 10000 nM.
Molecule `CCc1nc(C)c(CN2CCN(c3cccc4[nH]c(-c5ccc(C(C)(C)C)cc5)nc34)CC2)[nH]1` showed a solubility in series [6] of 20 µg/mL (≈ 43.8 µM). Further, the half-inhibitory concentration (IC50) in series [1] worked out at 160 nM; in series [2] it was 10 nM; in series [3], 34 nM; in [4], 18 nM.
In the case of `CCc1nc(CN2CCN(c3ccnc4[nH]c(-c5ccc(C(C)(C)C)cc5)nc34)CC2)c(C)[nH]1`, the inhibition in [5] amounted to 32%.

(Values after ChEMBL document CHEMBL1156984, “Synthesis and biological evaluation of piperazinyl heterocyclic antagonists of the gonadotropin releasing hormone (GnRH) receptor” (Bioorg Med Chem Lett, 2010).)
